What was measured:
[1] = system: Mycobacterium tuberculosis Erdman (autoluminescent); assay: GRinf, maximum normalised growth rate inhibition (unitless (-1 to 1)); higher = less effect (negative = killing)
Method: (§1)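 DiaMOND equipotent two-drug combination dose responses against autoluminescent M. tuberculosis Erdman in 8 in vitro models. Read-out is OD600, or luminescence for the intracellular and dormancy models, normalised to untreated wells. Hill-fit Einf, AUC25 and GRinf are potency metrics; FIC50 and FIC90 are Loewe-additivity fractional inhibitory concentrations, given as log2 (negative = synergy). Replicates are averaged.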

[2] = system: Mycobacterium tuberculosis Erdman (autoluminescent); assay: FIC90 (Loewe) at 90% inhibition (log2); higher = more antagonistic
Method: as §1

[3] = system: Mycobacterium tuberculosis Erdman (autoluminescent); assay: AUC25, normalised area under dose response up to IC25 (fraction (0-1)); higher = more potent at low dose
Method: as §1

[4] = system: Mycobacterium tuberculosis Erdman (autoluminescent); assay: FIC50 (Loewe) at 50% inhibition (log2); higher = more antagonistic
Method: as §1

[5] = system: Mycobacterium tuberculosis Erdman (autoluminescent); assay: Einf, fitted maximum growth inhibition of combination (fraction); higher = stronger maximal inhibition
Method: as §1

CC(C)/N=c1\cc2n(-c3ccc(Cl)cc3)c3ccccc3nc-2cc1Nc1ccc(Cl)cc1 [clofazimine] + CO[C@H]1/C=C/O[C@@]2(C)Oc3c(C)c(O)c4c(O)c(c(/C=N/N5CCN(C6CCCC6)CC5)c(O)c4c3C2=O)NC(=O)/C(C)=C\C=C\[C@H](C)[C@H](O)[C@@H](C)[C@@H](O)[C@@H](C)[C@H](OC(C)=O)[C@@H]1C [rifapentine]
Settings | AUC25, [3] | Einf, [5] | FIC50, [4] | FIC90, [2] | GRinf, [1]
in vitro model: acidic pH 5.7, time point: constant (~7 days, model-specific) | 0.0913 | 0.879 | 0.0615 | 0.794 | -0.198
in vitro model: acidic pH 5.7, time point: terminal (~4-5 doublings, model-specific) | 0.0911 | 0.986 | -0.0081 | 0.123 | -0.304
in vitro model: intracellular J774, time point: constant = terminal | – | 0.988 | – | 0.278 | -0.308

Settings | AUC25, [3] | Einf, [5] | FIC50, [4] | FIC90, [2] | GRinf, [1]
in vitro model: butyrate, time point: constant (~7 days, model-specific) | 0.112 | 0.95 | 0.36 | 0.54 | -0.0864
in vitro model: butyrate, time point: terminal (~4-5 doublings, model-specific) | 0.0945 | 0.986 | 0.279 | 0.504 | -0.0855
in vitro model: cholesterol 0.05 mM, time point: constant (~7 days, model-specific) | 0.137 | 0.651 | 1.24 | – | -0.17
in vitro model: cholesterol 0.05 mM, time point: terminal (~4-5 doublings, model-specific) | 0.111 | 0.887 | 1.3 | 1.44 | -0.127
in vitro model: cholesterol-high 0.2 mM, time point: constant (~7 days, model-specific) | 0.102 | 0.924 | 0.657 | 1.06 | -0.717
in vitro model: cholesterol-high 0.2 mM, time point: terminal (~4-5 doublings, model-specific) | 0.0885 | 0.996 | 0.714 | 0.543 | -0.813
in vitro model: dormancy (butyrate + nitrate, low O2), time point: constant (~7 days, model-specific) | 0.0864 | 0.932 | 0.121 | 0.16 | 0.0493
in vitro model: dormancy (butyrate + nitrate, low O2), time point: terminal (~4-5 doublings, model-specific) | 0.057 | 0.984 | 0.512 | 0.536 | -0.373
in vitro model: standard 7H9 glycerol, time point: constant = terminal | 0.1 | 0.967 | 0.18 | 0.35 | -0.11
in vitro model: valerate, time point: constant (~7 days, model-specific) | 0.136 | 0.885 | 0.297 | – | -0.112
in vitro model: valerate, time point: terminal (~4-5 doublings, model-specific) | 0.0746 | 0.918 | 0.0341 | 0.667 | 0.116

CC(C)/N=c1\cc2n(-c3ccc(Cl)cc3)c3ccccc3nc-2cc1Nc1ccc(Cl)cc1 [clofazimine] + CO[C@H]1/C=C/O[C@@]2(C)Oc3c(C)c(O)c4c(O)c(c(/C=N/N5CCN(C)CC5)c(O)c4c3C2=O)NC(=O)/C(C)=C\C=C\[C@H](C)[C@H](O)[C@@H](C)[C@@H](O)[C@@H](C)[C@H](OC(C)=O)[C@@H]1C [rifampicin]
Settings | AUC25, [3] | Einf, [5] | FIC50, [4] | FIC90, [2] | GRinf, [1]
in vitro model: acidic pH 5.7, time point: constant (~7 days, model-specific) | 0.0889 | 0.874 | -0.0436 | -1.95 | -0.208
in vitro model: acidic pH 5.7, time point: terminal (~4-5 doublings, model-specific) | 0.0797 | 0.986 | 0.0811 | -0.172 | -0.273
in vitro model: intracellular J774, time point: constant = terminal | – | 0.967 | – | 0.0974 | -0.265

Settings | AUC25, [3] | Einf, [5] | FIC50, [4] | FIC90, [2] | GRinf, [1]
in vitro model: butyrate, time point: constant (~7 days, model-specific) | 0.117 | 0.936 | 0.216 | 0.25 | -0.0602
in vitro model: butyrate, time point: terminal (~4-5 doublings, model-specific) | 0.104 | 0.979 | 0.0822 | 0.348 | -0.0537
in vitro model: cholesterol 0.05 mM, time point: constant (~7 days, model-specific) | 0.113 | 0.573 | 0.4 | – | 0.303
in vitro model: cholesterol 0.05 mM, time point: terminal (~4-5 doublings, model-specific) | 0.0926 | 0.867 | 1.24 | 2.57 | 0.0118
in vitro model: cholesterol-high 0.2 mM, time point: constant (~7 days, model-specific) | 0.0989 | 0.907 | 0.773 | 2.49 | -0.497
in vitro model: cholesterol-high 0.2 mM, time point: terminal (~4-5 doublings, model-specific) | 0.0908 | 1 | 1.01 | 0.724 | -0.955
in vitro model: dormancy (butyrate + nitrate, low O2), time point: constant (~7 days, model-specific) | 0.0883 | 0.893 | 0.2 | -0.494 | 0.194
in vitro model: dormancy (butyrate + nitrate, low O2), time point: terminal (~4-5 doublings, model-specific) | 0.062 | 0.97 | 0.0425 | 0.45 | -0.059
in vitro model: standard 7H9 glycerol, time point: constant = terminal | 0.103 | 0.935 | -0.376 | -0.394 | 0.00747
in vitro model: valerate, time point: constant (~7 days, model-specific) | 0.119 | 0.907 | 0.421 | – | -0.0677
in vitro model: valerate, time point: terminal (~4-5 doublings, model-specific) | 0.0808 | 0.955 | 0.569 | 1.43 | 0.00769

CC(C)/N=c1\cc2n(-c3ccc(Cl)cc3)c3ccccc3nc-2cc1Nc1ccc(Cl)cc1 [clofazimine] + COc1c(N2C[C@@H]3CCCN[C@@H]3C2)c(F)cc2c(=O)c(C(=O)O)cn(C3CC3)c12 [moxifloxacin]
Settings | AUC25, [3] | Einf, [5] | FIC50, [4] | FIC90, [2] | GRinf, [1]
in vitro model: acidic pH 5.7, time point: constant (~7 days, model-specific) | 0.151 | 0.605 | 0.466 | – | -0.0307
in vitro model: acidic pH 5.7, time point: terminal (~4-5 doublings, model-specific) | 0.0976 | 0.937 | 0.107 | 0.181 | -0.212
in vitro model: intracellular J774, time point: constant = terminal | – | 0.953 | – | 0.341 | -0.283

Settings | AUC25, [3] | Einf, [5] | FIC50, [4] | FIC90, [2] | GRinf, [1]
in vitro model: butyrate, time point: constant (~7 days, model-specific) | 0.109 | 0.955 | 0.486 | 1 | -0.131
in vitro model: butyrate, time point: terminal (~4-5 doublings, model-specific) | 0.0987 | 0.991 | 0.404 | 0.955 | -0.125
in vitro model: cholesterol 0.05 mM, time point: constant (~7 days, model-specific) | 0.153 | 0.711 | 0.262 | – | -0.0492
in vitro model: cholesterol 0.05 mM, time point: terminal (~4-5 doublings, model-specific) | 0.119 | 0.905 | 0.647 | -0.276 | -0.105
in vitro model: cholesterol-high 0.2 mM, time point: constant (~7 days, model-specific) | 0.131 | 0.944 | 0.132 | 1.06 | -0.922
in vitro model: cholesterol-high 0.2 mM, time point: terminal (~4-5 doublings, model-specific) | 0.113 | 1 | 0.0758 | 0.41 | -0.95
in vitro model: dormancy (butyrate + nitrate, low O2), time point: constant (~7 days, model-specific) | 0.109 | 0.931 | 0.299 | 0.00346 | -0.049
in vitro model: dormancy (butyrate + nitrate, low O2), time point: terminal (~4-5 doublings, model-specific) | 0.0647 | 0.98 | 0.666 | 0.72 | -0.241
in vitro model: standard 7H9 glycerol, time point: constant = terminal | 0.109 | 0.971 | 0.11 | 0.558 | -0.193
in vitro model: valerate, time point: constant (~7 days, model-specific) | 0.139 | 0.895 | -0.0703 | – | -0.179
in vitro model: valerate, time point: terminal (~4-5 doublings, model-specific) | 0.0871 | 0.941 | 0.137 | 0.7 | -0.0272

— the supplement of paper PMC8617591
